Assay results as given in US20240124434A1, “ATF6 INHIBITORS AND USES THEREOF” (Altos Labs, Inc., priority 2018, published 2024).
Counter-ions that a name gives are not always drawn. Like-named read-outs stand apart in the source and are kept apart here.

Test system: ATF6
Test: ERSE ATF6-luciferase reporter assay (thapsigargin-induced ER stress)
Assay type: cell-based, human
Details: for inhibition at 1 µM: 1 μM test compound, 8 hr, read-out: Inh. ATF6-Luc @ 1 μM [%]
Method: Human bone osteosarcoma (U2-OS) cells were obtained from the American Type Culture Collection (ATCC HTB-96, ATCC Manassas, VA) and were cultured with growing medium containing Dulbecco's Modified Eagle's Medium (DMEM) (Cat. No.:SH30023.02, HyClone) supplemented with fetal bovine serum (FBS) 10% (Cat. No.: 16000044, Gibco) and 1% penicillin-streptomycin antibiotic cocktail (Cat. No.: SV30010, Hyclone).
Cignal Lenti ATF6 luc reporter (Qiagen #CLS-6031L) was used to produce a stable cell line in U2-OS cells. […] The number of response elements as well as the intervening sequence between response elements has been experimentally optimized to maximize the signal to noise ratio.
Compounds were prepared as 10 mM stock solutions and stored at −80° C.
U2-OS ATF6 luc reporter cells were thawed 3-4 days and split once prior to assays. […] At the day of experiment, cells were pre-treated for 30 min with 50 μL growing medium containing either vehicle (dimethyl sulfoxide (DMSO)) (Cat. No.: D2650, Sigma-Aldrich) or 1 μM test compound. After the pre-incubation time, 50 μL of a solution containing 0.2 μM thapsigargin (Tg)(an ER stress inducer) was added to respective wells. This Tg solution also contained vehicle or test compounds at 1 μM. The final concentration of DMSO in each well was kept at 0.3%. Plates were incubated for 8 hr in humidified chambers.
Finally, after 8 hr, plates were cooled to room temperature for 10 min prior to luciferase assays. Luciferase reactions were performed using Luciferase Assay System (Cat. No.: E4550, Promega). Briefly, each well was washed with 100 μl of PBS1X and then 20 μl of lysis reagent were added into each well. Plates were shaken for 10 min, then 50 μl of Luciferase Assay Reagent were added to each well and luminescence was read with an integration time of 1 s and a gain of 110 in a Synergy 4 Microplate reader.
For the assessment of the half-maximal inhibitory concentration (IC50) for selected compounds, dose-response assays were performed. Compounds were serially diluted using DMSO starting at 30 μM until 1 nM. The assays were run as described above.

[1] = Homo sapiens, U2OS, 8 h, thapsigargin-induced ER stress, U2-OS ATF6 luc reporter cells
[2] = Homo sapiens, U2OS, dose-response 30 μM to 1 nM, thapsigargin-induced ER stress, U2-OS ATF6 luc reporter cells, read-out: IC50 ATF6-Luc reporter

Which IC50 does the source give for `CC(c1ccc(C(F)(F)F)cc1C(F)(F)F)n1cc(NC(=O)c2cc(-c3ccccn3)on2)cn1` (single isomer, unassigned) [“Enantiomer B” of Example S5, N-(1-(1-(2,4-bis(trifluoromethyl)phenyl)ethyl)-1H-pyrazol-4-yl)-5-(pyridin-2-yl)isoxazole-3-carboxamide] here?
The IC50 was greater than 10 µM.

And the “Inh. ATF6-Luc @ 1 μM [%]” value (8 h)?
The value was “+ (+ refers to <25% inhibition at 1 μM)”.

`CC(c1ccc(C(F)(F)F)cc1C(F)(F)F)n1cc(NC(=O)c2cc(-c3ccco3)on2)cn1` (single isomer, unassigned) [“Enantiomer B” of Example S6, N-(1-(1-(2,4-bis(trifluoromethyl)phenyl)ethyl)-1H-pyrazol-4-yl)-5-(furan-2-yl)isoxazole-3-carboxamide] was tested. Which IC50 did it give?
The IC50 was greater than 10 µM.

What about the “Inh. ATF6-Luc @ 1 μM [%]” value (8 h) of the same molecule?
Its value is “+ (+ refers to <25% inhibition at 1 μM)”.

Which inhibition at 1 µM [1] does the source give for `CC(C)(O)c1cc(C(=O)Nc2cnn(Cc3ccc(C(F)(F)F)cc3C(F)(F)F)c2)no1` [Compound 2, N-(1-(2,4-bis(trifluoromethyl)benzyl)-1H-pyrazol-4-yl)-5-(2-hydroxypropan-2-yl)isoxazole-3-carboxamide] here?
The inhibition at 1 µM was less than 25%.

And the IC50 [2]?
The IC50 was greater than 10 µM.

For `CC(=O)c1cc(C(=O)Nc2cnn(Cc3ccc(C(F)(F)F)cc3C(F)(F)F)c2)no1` [Compound 3, 5-acetyl-N-(1-(2,4-bis(trifluoromethyl)benzyl)-1H-pyrazol-4-yl)isoxazole-3-carboxamide], which inhibition at 1 µM [1] is on record?
The inhibition at 1 µM was less than 25%.

And the IC50 [2]?
Its IC50 is greater than 10 µM.

How did the IC50 [2] turn out when `O=C(Nc1cnn(Cc2ccc(C(F)(F)F)cc2C(F)(F)F)c1)c1nc(-c2cccc(F)c2)no1` [Compound 4, N-(1-(2,4-bis(trifluoromethyl)benzyl)-1H-pyrazol-4-yl)-3-(3-fluorophenyl)-1,2,4-oxadiazole-5-carboxamide formate] was run?
The IC50 was greater than 10 µM.

What about the inhibition at 1 µM (Homo sapiens, U2OS, thapsigargin-induced ER stress, U2-OS ATF6 luc reporter cells) of the same molecule?
The inhibition at 1 µM was less than 25%.

How did the inhibition at 1 µM [1] turn out when `O=C(Nc1cnn(Cc2ccc(C(F)(F)F)cc2C(F)(F)F)c1)c1cc(-c2ccncc2)on1` [Compound 10, N-(1-(2,4-bis(trifluoromethyl)benzyl)-1H-pyrazol-4-yl)-5-(pyridin-4-yl)isoxazole-3-carboxamide] was run?
Its inhibition at 1 µM is less than 25%.

What about the IC50 [2] of the same molecule?
Its IC50 is 1 to 10 µM.

What does the source list for `CC(C)(C)c1cc(C(=O)Nc2cnn(Cc3ccc(C(F)(F)F)cc3C(F)(F)F)c2)no1` [Compound 13, N-{1-[2,4-bis(trifluoromethyl)benzyl]-1H-pyrazol-4-yl}-5-tert-butyl-1,2-oxazole-3-carboxamide]?
inhibition at 1 µM [1]: < 25%; IC50 [2]: > 10 µM

Which inhibition at 1 µM [1] does the source give for `O=C(Nc1cnn(Cc2ccc(C(F)(F)F)cc2C(F)(F)F)c1)c1cncc(-c2cccnc2)c1` [Compound 15, N-(1-(2,4-bis(trifluoromethyl)benzyl)-1H-pyrazol-4-yl)-[3,3′-bipyridine]-5-carboxamide] here?
The inhibition at 1 µM was less than 25%.

And the IC50 [2]?
The IC50 was greater than 10 µM.

Which inhibition at 1 µM [1] does the source give for `O=C(Nc1cnn(Cc2ccc(C(F)(F)F)cc2C(F)(F)F)c1)c1cc(-c2ccc(F)cc2F)on1` [Compound 16, N-(1-(2,4-bis(trifluoromethyl)benzyl)-1H-pyrazol-4-yl)-5-(2,4-difluorophenyl)isoxazole-3-carboxamide] here?
Its inhibition at 1 µM is less than 25%.

And the IC50 [2]?
Its IC50 is greater than 10 µM.

`O=C(Nc1cn(Cc2ccc(C(F)(F)F)cc2C(F)(F)F)cn1)c1cc(-c2ccco2)on1` [Compound 17, N-(1-(2,4-bis(trifluoromethyl)benzyl)-1H-imidazol-4-yl)-5-(furan-2-yl)isoxazole-3-carboxamide] was tested. Which inhibition at 1 µM [1] did it give?
Its inhibition at 1 µM is less than 25%.

What about the IC50 [2] of the same molecule?
Its IC50 is greater than 10 µM.

With `O=C(Nc1cnn(C2Cc3ccccc3C2)c1)c1cc(-c2ccco2)on1` [Compound 18, N-(1-(2,3-dihydro-1H-inden-2-yl)-1H-pyrazol-4-yl)-5-(furan-2-yl) isoxazole-3-carboxamide] as the molecule, how does the inhibition at 1 µM [1] read?
Its inhibition at 1 µM is less than 25%.

What about the IC50 [2] of the same molecule?
Its IC50 is greater than 10 µM.

Which results are given for `O=C(Nc1cnn(Cc2ccc(C(F)(F)F)cc2C(F)(F)F)c1)c1cncc(-c2ccc(F)cc2)c1` [Compound 20, N-(1-(2,4-bis(trifluoromethyl)benzyl)-1H-pyrazol-4-yl)-5-(4 fluorophenyl)nicotinamide]?
inhibition at 1 µM [1]: < 25%; IC50 [2]: > 10 µM

For `O=C(Nc1cnn(Cc2ccc(C(F)(F)F)cc2C(F)(F)F)c1)c1cncc(-c2ccccc2)c1` [Compound 21, N-(1-(2,4-bis(trifluoromethyl)benzyl)-1H-pyrazol-4-yl)-5-phenylnicotinamide], which inhibition at 1 µM [1] is on record?
The inhibition at 1 µM was less than 25%.

What about the IC50 [2] of the same molecule?
The IC50 was greater than 10 µM.

Which results are given for `O=C(Nc1cnn(Cc2ccc(C(F)(F)F)cc2C(F)(F)F)c1)c1ccon1` [Compound 23, N-(1-(2,4-bis(trifluoromethyl)benzyl)-1H-pyrazol-4-yl)isoxazole-3-carboxamide]?
inhibition at 1 µM [1]: < 25%; IC50 [2]: > 10 µM

For `O=C(Nc1cnn(Cc2c(Cl)cccc2Cl)c1)c1cc(-c2ccco2)on1` [Compound 24, N-(1-(2,6-dichlorobenzyl)-1H-pyrazol-4-yl)-5-(furan-2-yl) isoxazole-3-carboxamide], which inhibition at 1 µM [1] is on record?
The inhibition at 1 µM was less than 25%.

What about the IC50 [2] of the same molecule?
The IC50 was greater than 10 µM.

Which inhibition at 1 µM [1] does the source give for `N#Cc1ccc(Cn2cc(NC(=O)c3cc(-c4ccco4)on3)cn2)cc1` [Compound 25, N-(1-(4-cyanobenzyl)-1H-pyrazol-4-yl)-5-(furan-2-yl)isoxazole-3-carboxamide] here?
Its inhibition at 1 µM is less than 25%.

And the IC50 [2]?
Its IC50 is greater than 10 µM.

What does the source list for `N#Cc1ccc(Cn2cc(NC(=O)c3cc(-c4ccco4)on3)cn2)cc1C(F)(F)F` [Compound 26, N-(1-(4-cyano-3-(trifluoromethyl)benzyl)-1H-pyrazol-4-yl)-5-(furan-2-yl)isoxazole-3-carboxamide]?
inhibition at 1 µM [1]: < 25%; IC50 [2]: > 10 µM

Which results are given for `O=C(Nc1cnn(-c2ccc(C(F)(F)F)cc2C(F)(F)F)c1)c1cc(-c2ccco2)on1` [Compound 27, N-(1-(2,4-bis(trifluoromethyl)phenyl)-1H-pyrazol-4-yl)-5-(furan-2-yl)isoxazole-3-carboxamide]?
inhibition at 1 µM [1]: < 25%; IC50 [2]: > 10 µM

`O=C(Nc1cnn(Cc2cc(C(F)(F)F)cc(C(F)(F)F)c2)c1)c1cc(-c2ccco2)on1` [Compound 28, N-(1-(3,5-bis(trifluoromethyl)benzyl)-1H-pyrazole-4-yl)-5-(furan-2-yl)isoxazole-3-carboxamide] was tested. Which inhibition at 1 µM [1] did it give?
Its inhibition at 1 µM is less than 25%.

And the IC50 [2]?
The IC50 was greater than 10 µM.

With `Cc1nn(Cc2ccc(C(F)(F)F)cc2C(F)(F)F)cc1NC(=O)c1cc(-c2ccccn2)on1` [Compound 29, N-(1-(2,4-bis(trifluoromethyl)benzyl)-3-methyl-1H-pyrazol-4-yl)-5-(pyridin-2-yl)isoxazole-3-carboxamide] as the molecule, how does the inhibition at 1 µM [1] read?
The inhibition at 1 µM was less than 25%.

What about the IC50 [2] of the same molecule?
Its IC50 is greater than 10 µM.

`Cc1c(NC(=O)c2cc(-c3ccccn3)on2)cnn1Cc1ccc(C(F)(F)F)cc1C(F)(F)F` [Compound 30, N-(1-(2,4-bis(trifluoromethyl)benzyl)-5-methyl-1H-pyrazol-4-yl)-5-(pyridin-2-yl)isoxazole-3-carboxamide] was tested. Which inhibition at 1 µM [1] did it give?
Its inhibition at 1 µM is 25 to 50%.

And the IC50 [2]?
The IC50 was 1 to 10 µM.

What does the source list for `O=C(Nc1cnn(Cc2ccc(C(F)(F)F)cc2C(F)(F)F)c1)c1cc(-c2ncccc2Cl)on1` [Compound 31, N-(1-(2,4-bis(trifluoromethyl)benzyl)-1H-pyrazol-4-yl)-5-(3-chloropyridin-2-yl)isoxazole-3-carboxamide]?
inhibition at 1 µM [1]: < 25%; IC50 [2]: > 10 µM

What does the source list for `CC(c1ccc(C(F)(F)F)cc1C(F)(F)F)n1cc(NC(=O)c2cc(-c3ncccc3Cl)on2)cn1` (stereo not shown) [Compound 32, N-(1-(1-(2,4-bis(trifluoromethyl)phenyl)ethyl)-1H-pyrazol-4-yl)-5-(3-chloropyridin-2-yl)isoxazole-3-carboxamide]?
inhibition at 1 µM [1]: < 25%; IC50 [2]: > 10 µM
